Data reported in patent US9222070B2, “Cell therapy method for the treatment of tumors” (Janssen Pharmaceuticals, Inc., priority 2001, dated 2015).

Assays:
[1] = test system: HTB-77/A2.1 cell line; assay: 51Cr-release lysis after IFNγ pretreatment; assay type: cell-based, human; conditions: 500 U/ml for twenty-four hours prior to 51Cr-release assay
Description: (§1) The cells were treated with 500 U/ml of IFNγ (specific activity of 25 ng/ml) for twenty-four hours prior to the initiation of the ^51Cr-release assay. […] To determine the effect of this dose of IFNg on the surface expression of both HLA-A2.1 and HER-2, a FACS analysis was performed to determine the levels of these molecules after both twenty-four and forty-eight hours of induction. FIG. 18, Panels A and B depict the FACS analysis results. […] This would explain why there is an enhance killing of the HTB-77/A2.1 cells in the presence of IFNγ. An up-regulation of this particular molecule would result in more efficient processing of the HER-2 molecule, allowing better presentation of the peptides of interest

[2] = test system: TAP-1; assay: Microarray DNA chip analysis of mRNA levels after IFNγ induction; assay type: cell-based, human; conditions: HTB-77/A2.1 cells after IFNγ induction
[3] = test system: HLA-A2.1; assay: FACS analysis of surface expression after IFNγ induction; assay type: cell-based, human; conditions: HLA-A2.1 transfected HTB-77 cells, similar treatment protocol
Description: as §1

[4] = test system: HER-2; assay: as above; assay type: cell-based, human
Description: as §1

[5] = test system: CD8 cells; assay: Ex vivo CTL generation with peptide-loaded Drosophila cells; assay type: cell-based, human; conditions: for frequency of CTL generation: normal donors, summary of Table 7; for CTL activity elicited by single epitope on Drosophila cells: donor #60, peptide added alone, lysis on JY cells, vs control HBc peptide
Text: Human CTLs from healthy subjects were immunized in vitro against tyrosinase, MART-1 and gp100 when loaded separately on Drosophila APCs and evaluated for lysis on JY cells (FIG. 4). […] Melanoma-specific CTLs from healthy subjects were induced using the full stimulation/re-stimulation protocol and tested for their ability to lyse Jurkat cells loaded with each of the of the peptides used in the stimulations (FIG. 5). […]. […] One in which the multiple peptides were loaded onto individual Drosophila cells and mixed before the primary stimulation (combo mix), or the multiple peptides were mixed and then loaded onto the Drosophila APCs (combo load).
All of the peptides were synthesized, given an identification number (PRI#) and evaluated for the ability to generate CTLs ex vivo utilizing the same method we employed for melanoma-associated, T cell peptide epitopes. CD8 cells were isolated from normal donors to determine the ability to routinely generate CTLs ex vivo with Drosophila cells loaded with known CTL peptide epitopes.
Standard ^51Cr-release assays were performed to determine CTL effector cell recognition of melanoma-associated peptide epitopes loaded onto T2 cells. […] 0.1mCi of ^51Cr was added and incubated at 37° C. in a water bath. […] The cells were pulsed with the appropriate peptide(s) at 20 μg/mL for thirty minutes. 50 μL was added to each 96-well plate each containing CD8 effector cells at 10, 2, 0.4, and 0.08×10^6/mL, which was incubated at 37° C. for six hours, spun and harvested for supernatant.
To extend the ability to raise CTLs to other tumor antigens present in a wide variety of other cancers we have selected published and novel sequences to tumor antigens common to several different tumor types.

[6] = test system: breast adenocarcinoma cell line (ATCC; HTB-131) transfected with HLA-A2.1; assay: Tumor lysis by HER-2 peptide-specific CTL effectors; assay type: cell-based, human; conditions: cell line transfected with HLA-A2.1
[7] = test system: CD8+ T cells; assay: HLA-A2.1 tetramer staining of HER-2 peptide-specific CTLs; assay type: cell-based, human; conditions: donor 262, after four-week ex vivo stimulation protocol
Description: The cells were labeled with FITC- or PE conjugated monoclonal antibodies by incubation at 4° C. for 30 minutes in FACS buffer (1% BSA, 0.02% NaN3 in PBS), followed by a wash in the same buffer. Cells were fixed in 0.5% formaldehyde prior to data acquisition and analysis on a FACScan flow cytometer (Becton Dickinson) with its CellQuest software. Nonspecific staining was measured with the same secondary antibody used to label purified primary antibodies, or an isotype-matched control when the primary antibodies were directly labeled. Tetrameric staining was performed with HLA-A2.1 specific HIVgag tetrameric molecules (Beckman Coulter) harboring the sequence [sequence] […] PE-labeled tetrameric HLA-A2.1-peptide complexes were used in conjunction with fluorescein isothiocyanate (FITC)-labeled anti-human CD8a (BD PharMagin) monoclonal antibodies to stain epitope-specific CD8+ T cells as described in package insert. Samples were analyzed by two-color flow cytometry on a Becton Dickinson FACScan, and gated CD8+ T cells were examined for staining with tetrameric HLA-A2.1-peptide complexes.

[8] = target: T1, HLA-A2.1 molecule (Homo sapiens, UniProt P04439, D140Y/D185E/D98H/E176V/E277Q/G131W/G231S/I119V/I121R/I166T/I218V/L300P/L318F/N151K/N90K/P208A/P217A/Q86G/Q94H/R138H/R169H/T345S); assay: Peptide binding on Drosophila cells expressing HLA-A2.1
T1 construct: expressed in transfected cells; host or cells: Drosophila melanogaster Schneider S2 cells (ATCC CRL 10974), pRmHa-3 vector, CuSO4 induction

Substance	frequency of CTL generation [5]	CTL activity elicited by single epitope on Drosophila cells [5]	binding to the HLA-A2.1 molecule on transfected Drosophila cells [8]	also measured
IFNγ: interferon gamma used to pretreat tumor cell lines at 500 U/ml	–	–	–	lysis of HLA-A2.1 transfected cell line [1]: enhanced lysis; level of TAP-1 expression (mRNA); also HLA-DM and -DR, Cathepsin S and D and Caspase 5 [2]: increase in the level of TAP-1 expression; HLA-A2.1 surface expression [3]: neither HER-2 nor HLA-A2.1 demonstrated an increase; HER-2 surface expression ([4]; HLA-A2.1 transfected HTB-77 cells, similar treatment protocol): neither HER-2 nor HLA-A2.1 demonstrated an increase; HER-2 surface expression ([4]; HTB-77 cells, twenty-four and forty-eight hours after induction): no enhancement
CLTSTVQLV [Peptide 826]	highest frequency of CTL generation	–	–	–
ITDQVPFSV [Peptide 817]	–	CTL activity was elicited	–	–
VMAGVGSPYV [Peptide 861]	highest frequency of CTL generation	–	weak to moderate binders	lysis of tumor cell line by CTLs specific for the peptide [6]: could lysis this tumor cell line; peptide-specific CTLs, tetramer-positive [7]: 15.1%
ELVSEFSRM [Peptide 863]	highest frequency of CTL generation	–	weak to moderate binders	–
YMNGTMSQV [Peptide 689]	–	CTL activity was elicited	–	–
